Like-named read-outs stand apart in the source and are kept apart here. Numbered stars: 1 amine (or outer) side, 2 acyl side, 3 side chain; on linkers, the order of the positions; unused ones are H or OH. Bridge positions count the residues as written; N and C are the ends. Square brackets hold non-standard residues; d marks the D form. Peptide text beside a SMILES is read from it. * marks the point of attachment. Trp(βS-Me,7-OMe) = COc1cccc2c([C@H](C)[C@H](N)C(=O)O)c[nH]c12; Trp(7-Cl) = N[C@@H](Cc1c[nH]c2c(Cl)cccc12)C(=O)O; Phe(4-COOH) = N[C@@H](Cc1ccc(C(=O)O)cc1)C(=O)O; Trp(7-aza) = N[C@@H](Cc1c[nH]c2ncccc12)C(=O)O; Phe(4-CH2NH2) = NCc1ccc(C[C@H](N)C(=O)O)cc1; αMeW = C[C@](N)(Cc1c[nH]c2ccccc12)C(=O)O; X1 = O=C([C@@H]1CC[C@H](N[*:1])C1)[*:2]; Pip(4-aza) = O=C(O)[C@@H]1CNCCN1; 4Pal = N[C@@H](Cc1ccncc1)C(=O)O; NMeE = CN[C@@H](CCC(=O)O)C(=O)O; αMeS = C[C@](N)(CO)C(=O)O; Carboxymethyl = O=C(O)C*; Nle = CCCC[C@H](N)C(=O)O; Sar = CNCC(=O)O
How the values were obtained:
human TNFR2 ECD protein = molecular target: T1, human TNFR2 ECD protein (Homo sapiens, UniProt P20333); test: SPR off-target binding (selectivity) to human TNFR2 ECD
T1 construct: HRV 3C protease cleavage site (C); 6His (C, cleaved yes); made in house; host or cells: Sf21 insect cells (baculovirus), secreted
T1 sequence (P20333 23-257): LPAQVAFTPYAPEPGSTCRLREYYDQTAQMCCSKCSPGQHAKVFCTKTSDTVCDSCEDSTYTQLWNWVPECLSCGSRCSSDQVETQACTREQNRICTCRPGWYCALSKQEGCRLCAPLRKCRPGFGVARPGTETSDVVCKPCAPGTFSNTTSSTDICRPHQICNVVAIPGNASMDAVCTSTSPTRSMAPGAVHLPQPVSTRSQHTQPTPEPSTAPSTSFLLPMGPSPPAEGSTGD
Summary of the method: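 Insect-cell human receptor ECDs, enzymatically biotinylated, immobilized via streptavidin capture chip. Peptide binding and dissociation measured in RU in pH 7.4 HEPES buffer containing 2% DMSO; chip regenerated per analyte. Rate constants give affinity.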

[1] = molecular target: T2, TNFα-induced NF-κB signal transduction pathway (TNFR1 signaling) in THP-1 cells (Homo sapiens, UniProt P19438); test: THP-1 Lucia NF-κB reporter cell assay, inhibition of TNFα-induced NF-κB signaling; type: cell-based
T2 sequence (P19438 30-455): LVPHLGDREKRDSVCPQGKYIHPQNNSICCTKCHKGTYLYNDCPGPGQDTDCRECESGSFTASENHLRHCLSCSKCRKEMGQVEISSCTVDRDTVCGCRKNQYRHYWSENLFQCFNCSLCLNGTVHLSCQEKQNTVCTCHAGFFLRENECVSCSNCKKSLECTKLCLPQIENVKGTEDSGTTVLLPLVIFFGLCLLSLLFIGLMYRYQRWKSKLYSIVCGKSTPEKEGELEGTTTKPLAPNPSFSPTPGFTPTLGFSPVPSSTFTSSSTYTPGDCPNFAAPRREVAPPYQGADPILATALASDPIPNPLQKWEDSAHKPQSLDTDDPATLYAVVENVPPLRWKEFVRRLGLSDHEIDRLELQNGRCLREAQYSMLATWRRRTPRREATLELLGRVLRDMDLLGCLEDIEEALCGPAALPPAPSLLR
Summary of the method: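 Macrocyclic peptides were preincubated 1 h at 37 °C with THP-1 NF-κB-Lucia reporter cells (20,000 cells/well) in antibiotic-free RPMI 1640/10% FBS, then stimulated with 10 ng/mL human TNFα overnight (16-18 h). Secreted luciferase in supernatant was read by luminescence; IC50 from 4-parameter logistic fits.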

[2] = THP-1 NF-κB Lucia reporter cells, 10 ng/mL TNFα, 16-18 h, secreted luciferase; read-out: THP-1 IC50

## CCCC[C@@H]1NC(=O)CSC[C@@H](C(N)=O)NC(=O)[C@](C)(Cc2c[nH]c3ccccc23)NC(=O)CN(C)C(=O)[C@H](Cc2ccc(O)cc2)NC(=O)[C@H](Cc2ccc(OCC(=O)O)cc2)NC(=O)[C@](C)(CO)NC(=O)[C@H](Cc2c[nH]c3c(Cl)cccc23)NC(=O)[C@H](Cc2ccncc2)NC(=O)[C@H](CC(N)=O)NC(=O)[C@H](CCC(=O)O)N(C)C(=O)[C@H](Cc2c[nH]c3ncccc23)NC(=O)[C@H](CO)NC(=O)[C@H](Cc2ccc(CN)cc2)NC1=O [SEQ ID NO. 283] ({CH2CO}-[Nle][Phe(4-CH2NH2)]S[Trp(7-aza)][NMeE]N[4Pal][Trp(7-Cl)][αMeS]Y(Carboxymethyl)Y[Sar][αMeW]C-NH2; thioether N-14)
Human TNFR2 ECD protein
  Kd: > 1000 nM
[1]; [2]
  IC50: 6.4 nM

## CCCC[C@@H]1NC(=O)[C@@H]2CC[C@@H](C2)NC(=O)[C@H]([C@@H](C)c2c[nH]c3c(OC)cccc23)NC(=O)CN(C)C(=O)[C@H](Cc2ccc(O)cc2)NC(=O)[C@H](Cc2ccc(C(=O)O)cc2)NC(=O)[C@](C)(CO)NC(=O)[C@H](Cc2c[nH]c3c(Cl)cccc23)NC(=O)[C@H](Cc2ccc(C(=O)O)cc2)NC(=O)[C@H](CC(N)=O)NC(=O)[C@H](CCC(=O)O)N(C)C(=O)[C@H](Cc2c[nH]c3ccccc23)NC(=O)[C@@H]2CNCCN2C(=O)[C@H](Cc2ccncc2)NC1=O [SEQ ID NO. 288] (cyclo([4Pal][Pip(4-aza)]W[NMeE]N[Phe(4-COOH)][Trp(7-Cl)][αMeS][Phe(4-COOH)]Y[Sar][Trp(βS-Me,7-OMe)][X1][Nle]))
Human TNFR2 ECD protein
  Kd: > 1000 nM
[1]; [2]
  IC50: 4.2 nM

## CN1CC(=O)N[C@@H](CC(N)=O)C(=O)N[C@@H](Cc2ccc(O)cc2)C(=O)N[C@@H](Cc2c[nH]c3ccccc23)C(=O)N[C@@H](CO)C(=O)N[C@@H](Cc2ccc(O)cc2)C(=O)N[C@@H](Cc2ccc(O)cc2)C(=O)N(C)CC(=O)N[C@@H](Cc2c[nH]c3ccccc23)C(=O)N[C@H](C(=O)NCC(=O)N[C@@H](CCC(=O)O)C(=O)N[C@@H](CCC(=O)O)C(N)=O)CSCC(=O)N[C@@H](Cc2ccccc2)C(=O)N[C@@H](Cc2ccc(O)cc2)C(=O)N[C@@H](CO)C(=O)N[C@@H](Cc2c[nH]c3ccccc23)C1=O [SEQ ID NO. 289] ({CH2CO}-FYSW[Sar]NYWSYY[Sar]WCGEE-NH2; thioether N-14)
Human TNFR2 ECD protein
  Kd: > 1000 nM
[1]; read-out: THP-1 IC50; THP-1 NF-κB Lucia reporter cells, 10 ng/mL TNFα, 16-18 h, secreted luciferase
  IC50: 36.4 nM
